In BindingDB's records for doi:10.1016/j.bmc.2010.01.055 (Chinese Academy of Sciences, 2010):

Molecular target: Receptor-type tyrosine-protein phosphatase alpha (PTPRA) (Homo sapiens) (UniProt P18433)
Test: Inhibition of PTPalpha expressed in Escherichia coli BL21 (DE3) after 10 mins by spectrophotometry

Receptor-type tyrosine-protein phosphatase alpha (PTPRA) (Homo sapiens), sequence (P18433 whole entry, looked up): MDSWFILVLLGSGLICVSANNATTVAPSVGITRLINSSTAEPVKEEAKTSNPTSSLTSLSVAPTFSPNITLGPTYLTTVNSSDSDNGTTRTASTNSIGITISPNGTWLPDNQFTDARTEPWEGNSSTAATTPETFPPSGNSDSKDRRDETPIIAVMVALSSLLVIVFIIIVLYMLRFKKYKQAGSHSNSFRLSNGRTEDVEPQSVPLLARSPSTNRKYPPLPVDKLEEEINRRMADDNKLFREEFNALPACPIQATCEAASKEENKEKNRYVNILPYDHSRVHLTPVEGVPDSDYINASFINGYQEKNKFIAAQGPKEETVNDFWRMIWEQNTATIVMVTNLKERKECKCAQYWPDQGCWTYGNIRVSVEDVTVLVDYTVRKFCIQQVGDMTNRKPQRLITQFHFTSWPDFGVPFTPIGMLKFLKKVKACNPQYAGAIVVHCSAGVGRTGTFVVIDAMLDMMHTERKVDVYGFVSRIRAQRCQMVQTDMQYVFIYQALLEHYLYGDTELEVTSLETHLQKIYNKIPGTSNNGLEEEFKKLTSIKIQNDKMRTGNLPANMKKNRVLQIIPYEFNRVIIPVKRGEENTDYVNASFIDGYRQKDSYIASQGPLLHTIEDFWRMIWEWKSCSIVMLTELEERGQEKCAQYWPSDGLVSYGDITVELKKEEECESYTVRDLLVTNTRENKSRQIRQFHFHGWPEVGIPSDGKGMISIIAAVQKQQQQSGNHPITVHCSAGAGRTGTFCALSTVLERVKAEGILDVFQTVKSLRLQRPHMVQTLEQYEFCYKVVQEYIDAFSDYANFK

Row | Structure (SMILES) | IC50
1 | CC(C)OC(=O)c1c(-c2ccc(-c3ccccc3)cc2)csc1NC(=O)C1C2C=CC(C2)C1C(=O)O (centres undefined) [4-Biphenyl-4-yl-2-[(3-carboxy-bicyclo[2.2.1]hept-5-ene-2-carbonyl)-amino]-thiophene-3-carboxylic acid isopropylester] | > 100 µM
2 | CCc1oc2cc(S(=O)(=O)Nc3nccs3)ccc2c1C(=O)c1cc(Br)c(O)c(Br)c1 [3-(3,5-dibromo-4-hydroxybenzoyl)-2-ethyl-N-(thiazol-2-yl)benzofuran-6-sulfonamide] | > 100 µM
3 | CC(C)OC(=O)c1c(-c2ccc(-c3ccc(Cl)cc3)cc2)csc1NC(=O)C1C2C=CC(C2)C1C(=O)O (centres undefined) [2-[(3-Carboxy-bicyclo[2.2.1]hept-5-ene-2-carbonyl)-amino]-4-(4'-chloro-biphenyl-4-yl)-thiophene-3-carboxylicacid isopropyl ester] | > 100 µM
4 | CCOC(=O)c1c(-c2ccc(-c3ccc(F)c(Cl)c3)cc2)csc1NC(=O)c1ccccc1C(=O)O [2-(2-Carboxy-benzoylamino)-4-(30-chloro-40-fluorobiphenyl-4-yl)-thiophene-3-carboxylic acid ethyl ester] | 23.1 µM
